Laboratory results reported in PubChem BioAssay (NCI).
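Exposure lasted 48 hours, with cells grown in 96-well plates and compounds tested at five concentrations. TGI marks complete inhibition of growth.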

Test system: DLD-1 colon
Experiment: NCI tumour cell line growth inhibition, 48 h

| SMILES | TGI |
| --- | --- |
| O=C(OC(=O)n1ccc2ccccc21)n1ccc2ccccc21 | > 100 µM |
| CC(=O)OC1CCC2(C)C3CCC4(C)C(c5ccc(=O)oc5)CC5OC54C3CCC2(O)C1 (centres undefined) | 1.57 µM |
| Cc1ccc(S(=O)(=O)Oc2cc(-c3ccccc3)nc3ccccc23)cc1 | > 46.8 µM |
| CC1CC=CC(O)C1 (centres undefined) | > 100 µM |
| O=NN(CCCl)C(=O)NC1CCSc2ccccc21 (centres undefined) | > 100 µM |

Test system: LXFL 529 NSCLC
Experiment: NCI tumour cell line growth inhibition, 48 h

| SMILES | TGI |
| --- | --- |
| COc1ccccc1C1C(C(=O)O)=C(CO)Oc2cc3c(cc21)OCO3 (centres undefined) | > 100 µM |
| Cc1cc(=O)[nH]c(NN2C(Cl)C(=O)C2c2cccc(O)c2)n1 (centres undefined) | > 100 µM |

Test system: MDA-N
Experiment: NCI tumour cell line growth inhibition, 48 h

| SMILES | TGI |
| --- | --- |
| C=CC(Br)(CBr)CCC(Cl)C(C)C (centres undefined) | 2.8 µM |
| CC(=O)Oc1cccc2c(/C=N/NC(N)=S)ncc(C)c12 | 21 µM |
| NNC(N)Nc1ccccc1 (centres undefined) | > 100 µM |
| c1ccc(N=C2SC(=NC3CCCCC3)N(C3CCCCC3)C2=Nc2ccccc2)cc1 | > 100 µM |

Test system: P388 leukemia
Experiment: NCI tumour cell line growth inhibition, 48 h

| SMILES | TGI |
| --- | --- |
| CC(=O)OC1CCC2(C)C3CCC4(C)C(c5ccc(=O)oc5)CC5OC54C3CCC2(O)C1 (centres undefined) | > 200 µM |
| Cc1ccc(S(=O)(=O)Oc2cc(-c3ccccc3)nc3ccccc23)cc1 | 3.12 µM |
| CC1CC=CC(O)C1 (centres undefined) | > 100 µM |
| O=NN(CCCl)C(=O)NC1CCSc2ccccc21 (centres undefined) | 82.6 µM |

Test system: P388/ADR leukemia
Experiment: NCI tumour cell line growth inhibition, 48 h

| SMILES | TGI |
| --- | --- |
| CC(=O)OC1CCC2(C)C3CCC4(C)C(c5ccc(=O)oc5)CC5OC54C3CCC2(O)C1 (centres undefined) | > 200 µM |
| Cc1ccc(S(=O)(=O)Oc2cc(-c3ccccc3)nc3ccccc23)cc1 | 12.6 µM |
| CC1CC=CC(O)C1 (centres undefined) | > 100 µM |
| O=NN(CCCl)C(=O)NC1CCSc2ccccc21 (centres undefined) | > 100 µM |

Test system: SN12K1 renal
Experiment: NCI tumour cell line growth inhibition, 48 h

| SMILES | TGI |
| --- | --- |
| O=C(OC(=O)n1ccc2ccccc21)n1ccc2ccccc21 | > 100 µM |
| CC(=O)OC1CCC2(C)C3CCC4(C)C(c5ccc(=O)oc5)CC5OC54C3CCC2(O)C1 (centres undefined) | 3.7 µM |
| Cc1ccc(S(=O)(=O)Oc2cc(-c3ccccc3)nc3ccccc23)cc1 | 4.25 µM |
| CC1CC=CC(O)C1 (centres undefined) | > 100 µM |
| O=NN(CCCl)C(=O)NC1CCSc2ccccc21 (centres undefined) | > 100 µM |

Test system: XF 498 CNS
Experiment: NCI tumour cell line growth inhibition, 48 h

| SMILES | TGI |
| --- | --- |
| O=C(OC(=O)n1ccc2ccccc21)n1ccc2ccccc21 | > 100 µM |
| CC(=O)OC1CCC2(C)C3CCC4(C)C(c5ccc(=O)oc5)CC5OC54C3CCC2(O)C1 (centres undefined) | 6.97 µM |
| Cc1ccc(S(=O)(=O)Oc2cc(-c3ccccc3)nc3ccccc23)cc1 | 24.3 µM |
| CC1CC=CC(O)C1 (centres undefined) | > 100 µM |
| O=NN(CCCl)C(=O)NC1CCSc2ccccc21 (centres undefined) | > 100 µM |
